{"source": "patent US20260207616A1", "about": "“COMBINATION THERAPIES FOR TREATMENT OF HEARING DISORDERS” (GATEWAY BIOTECHNOLOGY, INC., priority 2023, published 2026)", "system": "tinnitus positive mice", "experiment": "go/no-go trials, sound-based avoidance detection (SBAD) in noise-induced tinnitus mice", "format": "in vivo", "conditions": "intraperitoneal injection; for dosage reached before the agent alone was effective in treating the animals tinnitus: single agent", "description": "With reference to FIGS. 1A-1D, single drug treatment of tinnitus is evaluated using the go/no-go methodology further elaborated upon in Example 4. With reference to FIGS. 2A-2B, multi drug treatment of tinnitus is evaluated using the go/no-go methodology further elaborated upon in Example 4. […] Using a shuttle box divided into two compartments, mice were trained to cross from side to side with sound cues in the “Go” trials and remain still in the absence of sound in the “No-Go” trials for 15 days. […] The sound cues were randomly played as white noise or narrow-band noise at 8,10,12.5,16, and 29 kHz with sound intensities randomly at 75, 80, or 85 dB. […] Additionally, a hurdle was added on training 11 to reinforce the training. After the 15th training day, mice were tested for 3 days to obtain a baseline score to be compared after noise exposure, as well as retraining for 3 days. Following the successful completion of training so that mice reached a high percentage of success in the trials, the mice were exposed to a noise-induced trauma for tinnitus over a two day period. To ensure that the mice still have their hearing, one ear was protected with an ear plug, while the other ear was exposed to the noise. The mice were placed in a sound booth where they were exposed to 120 dB broadband noise at 4-25 kHz for two hours. Following the noise exposure, the mice were housed for one month, and then tested to see if they have developed tinnitus. In these testing periods, the mice were tested for three days in the shuttle boxes, where they underwent the Go and No-Go trials, however in the No-Go trials the mice were not shocked, as it is expected that mice with tinnitus would cross compartments in the absence of a sound cue. The mice were continued to be shocked in the Go trials in order to ensure that they have retained their hearing and can hear the sound cues. […] To insure there is a significant difference in the No-Go trial scores, chi-square tests were completed comparing the post-noise exposure tests to the baseline tests. However, if tinnitus is not present in the mice, tests were done after waiting one more month, and another if needed. […] The Go and No-Go scores for the tests were compared using chi-square tests in Social Science Statistics and JASP. The chi-square tests were used first to determine whether mice were tinnitus positive by comparing the No-Go baseline scores pre-noise exposure to the No-Go post-noise exposure scores, with a significant difference (p-value<0.05) in at least 2 of the tests indicating a tinnitus positive mouse. Following this conclusion, the mice were tested accordingly to determine if their No-Go scores could be improved by different drug doses and combinations. […] The No-Go scores at 3 months post-noise exposure were compared to baselines to assess for tinnitus. Mice had significant decreases on all 3 days of testing. This indicates these mice had tinnitus. One or more mice is a control animal. In looking at the Go scores for the tinnitus animals when tested with the specified drugs, mice had significant decreases in their scores when. […] In contrast, a lack of change in the No-Go scores indicates the first and/or second agent was not effective in treating the animal's tinnitus, and decrease in the score may indicate that the animal's tinnitus was worsened.", "data": [{"compound": "CCOC(=O)C1=C(COCCN)NC(C)=C(C(=O)OC)C1c1ccccc1Cl", "note": "(centres unmarked) [AML, amlodipine]", "values": [{"measurement": "correct percentage result in the no-go trial", "setting": "AML 5 mg/kg", "value": "~90", "unit": "%"}, {"measurement": "correct percentage result in the no-go trial", "setting": "AML 8 mg/kg", "value": "~95", "unit": "%"}]}, {"compound": "NC(=O)N1c2ccccc2C=Cc2ccccc21", "note": "[CBZ, carbamazepine]", "values": [{"measurement": "correct percentage result in the no-go trial", "setting": "CBZ 5 mg/kg, within a margin of error of the saline dosed mice", "value": "less than 70%"}, {"measurement": "correct percentage result in the no-go trial", "setting": "CBZ 8 mg/kg", "value": "less than 80%"}]}, {"compound": "CCC1(C)CC(=O)NC1=O", "note": "(centres unmarked) [ESM, ethosuximide]", "values": [{"measurement": "correct percentage result in the no-go trial", "setting": "ESM 300 mg/kg", "value": "~70", "unit": "%"}]}, {"compound": "COCCOC(=O)C1=C(C)NC(C)=C(C(=O)OC(C)C)C1c1cccc([N+](=O)[O-])c1", "note": "(centres unmarked) [NMDP, nimodipine]", "values": [{"measurement": "correct percentage result in the no-go trial", "setting": "NMDP 30 mg/kg", "value": "~95", "unit": "%"}, {"measurement": "correct percentage result in the no-go trial", "setting": "NMDP 50 mg/kg", "value": "~95", "unit": "%"}, {"measurement": "dosage reached before the agent alone was effective in treating the animals tinnitus", "value": "about 30 mg/kg"}]}, {"compound": "COc1ccc2cc1Oc1ccc(cc1)C[C@H]1c3cc(c(OC)cc3CCN1C)Oc1c(OC)c(OC)cc3c1[C@H](C2)N(C)CC3", "note": "[TET, tetrandrine]", "values": [{"measurement": "correct percentage result in the no-go trial", "setting": "TET 60 mg/kg", "value": "~90", "unit": "%"}, {"measurement": "correct percentage result in the no-go trial", "setting": "TET 90 mg/kg", "value": "~95", "unit": "%"}, {"measurement": "dosage reached before the agent alone was effective in treating the animals tinnitus", "value": "about 30 mg/kg"}]}]}
